In patent US12404283B2, “c-MYC mRNA translation modulators and uses thereof in the treatment of cancer” (Anima Biotech Inc., priority 2022, dated 2025):

Assays:
Format in all cases: cell-based, human
c-Myc = c-Myc immunofluorescence assay; conditions: A549 cells, 24 hours treatment, anti-c-Myc immunofluorescence
In short: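 A549 cells grown 48 h, exposed 24 h to rising compound concentrations, then fixed, permeabilised and stained for c-Myc plus DAPI. Nuclear-segmented c-Myc fluorescence quantified by high-content imaging at 20×; EC50 from logistic dose–response fits.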

A549 cells = experiment: Metabolic labeling (L-Azidohomoalanine) of global protein synthesis in A549 cells
Excerpt: FIG. 2 depicts selective regulation of c-Myc translation. […] In gray, cell nuclei stained with DAPI; in yellow, L-Azidohomoalanine (AHA) metabolic labeling.

global translation = experiment: Metabolic labeling assay (global translation, modified methionine incorporation); conditions: A549 cells, 4 hour pulse, FIG. 2
Experimental: A549 cells were incubated with active compounds and metabolically labelled with fluorescent methionine for a 4 hour pulse (click-chemistry modified methionine). Cells were fixed and newly synthesized proteins detected by using click-chemistry with a fluorescent detector (FIG. 2).
A549 cells were seeded at 3,200 cells per well in complete culture medium. Plates were incubated at 37° C., 5% CO2 overnight. After 48 hours of incubation, the growth medium was aspirated, and cells were washed three times with HBSS. Metabolic labeling medium DMEM (-Cys-Met), containing 10% dialyzed FBS, 10% pencillin-streptomycin and 1% L-glutamine was added to the cells for 30 min. Then medium was replaced by metabolic labeling medium containing 25 μM L-Azidohomoalanine (AHA, ThermoFisher) and tested compounds at a final concentration of 30 μM, and cells were incubated for 4 hours at 37° C., 5% CO2. Cells were washed by HBSS at 37° C. for 15 min before fixing with 4% paraformaldehyde. Cells were washed twice with 3% BSA in PBS before permeabilization with 0.5% Triton X-100 in PBS for 20 min. The AHA staining with Alexa Fluor™ 555 alkyne was performed according to the manufacturer protocol. Images were captured with Operetta microscope (Perkin Elmer) using ×20 high NA objective lens.

Compound | Myc Efficacy (−LogEC50) (c-Myc) | further results
O=C(NCCCN1CCCCC1)c1ccc2c(c1)sc1nc(-c3ccc([C@@H]4CCCN4)cc3F)nn12 [compound 422, (S)-2-(2-fluoro-4-(pyrrolidin-2-yl)phenyl)-N-(3-(piperidin-1-yl)propyl)benzo[4,5]thiazolo [3,2-b][1,2,4]triazole-6-carboxamide] | +++ (+++ ≥6) | 
O=C(NCCCN1CCC(F)CC1)c1ccc2c(c1)sc1nc(-c3ccc(C4(O)COC4)cc3F)cn12 [compound 425] | +++ (+++ ≥6) | 
O=C(NCCCN1CCC(F)CC1)c1ccc2c(c1)sc1nc(-c3cc4c(cc3F)CNC4)cn12 [compound 454, 2-(6-fluoroisoindolin-5-yl)-N-(3-(4-fluoropiperidin-1-yl)propyl)benzo[d]imidazo [2,1-b]thiazole-7-carboxamide] | +++ (+++ ≥6) | 
O=C(NCCCN1CCC(F)CC1)c1ccc2c(c1)sc1nc(-c3c(F)cc(C4CCCN4)cc3C3CC3)cn12 (centres unmarked) [compound 475, 2-(2-cyclopropyl-6-fluoro-4-(pyrrolidin-2-yl)phenyl)-N-(3-(4-fluoropiperidin-1-yl)propyl)benzo[d]imidazo[2,1-b]thiazole-7-carboxamide] | ++ (++ ≥5 and <6) | 
O=C(NCCCN1CCC(F)CC1)c1ccc2c(c1)sc1nc(-c3cc(F)c(C4CCCN4)cc3F)cn12 (centres unmarked) [compound 477, 2-(2,5-difluoro-4-(pyrrolidin-2-yl)phenyl)-N-(3-(4-fluoropiperidin-1-yl)propyl)benzo[d]imidazo[2,1-b]thiazole-7-carboxamide] | +++ (+++ ≥6) | 
O=C(NCCCN1CCC(F)CC1)c1ccc2c(c1)sc1nc(-c3ccc(-c4ncc[nH]4)cc3F)cn12 [compound 482, 2-(2-fluoro-4-(1H-imidazol-2-yl)phenyl)-N-(3-(4-fluoropiperidin-1-yl)propyl)benzo[d]imidazo[2,1-b]thiazole-7-carboxamide] | +++ (+++ ≥6) | 
O=C(NCCCN1CCC(F)CC1)c1ccc2c(c1)sc1nc(-c3cc(F)c(C4CCCN4)c(Cl)c3)cn12 (centres unmarked) [compound 485, 2-(3-chloro-5-fluoro-4-(pyrrolidin-2-yl)phenyl)-N-(3-(4-fluoropiperidin-1-yl)propyl)benzo[d]imidazo[2,1-b]thiazole-7-carboxamide] | +++ (+++ ≥6) | 
O=C1CCCC(c2ccc(-c3cn4c(n3)sc3cc(C(=O)NCCCN5CCC(F)CC5)ccc34)c(F)c2)N1 (centres unmarked) [compound 486] | ++ (++ ≥5 and <6) | 
O=C(NCCCN1CCC(F)CC1)c1ccc2c(c1)sc1nc(-c3ccc(-c4ccn[nH]4)cc3F)cn12 [compound 487, 2-(2-fluoro-4-(1H-pyrazol-5-yl)phenyl)-N-(3-(4-fluoropiperidin-1-yl)propyl)benzo[d]imidazo[2,1-b]thiazole-7-carboxamide] | ++ (++ ≥5 and <6) | 
COc1cc(-c2cn3c(n2)sc2cc(C(=O)NCCCN4CCC(F)CC4)ccc23)c(F)cc1C1CCCN1 (centres unmarked) [compound 489, 2-(2-fluoro-5-methoxy-4-(pyrrolidin-2-yl)phenyl)-N-(3-(4-fluoropiperidin-1-yl)propyl)benzo[d]imidazo[2,1-b]thiazole-7-carboxamide] | ++ (++ ≥5 and <6) | 
Cc1cc(-c2cn3c(n2)sc2cc(C(=O)NCCCN4CCC(F)CC4)ccc23)ccn1 [compound 495, N-(3-(4-fluoropiperidin-1-yl)propyl)-2-(2-methylpyridin-4-yl)benzo[d]imidazo[2,1-b]thiazole-7-carboxamide] | +++ (+++ ≥6) | 
NC(=O)c1ccc2c(c1)sc1nc(-c3ccc([C@@H]4C[C@H](O)CN4)cc3F)cn12 [compound 520, 2-(2-fluoro-4-((2S,4S)-4-hydroxypyrrolidin-2-yl)phenyl)benzo[d]imidazo[2,1-b]thiazole-7-carboxamide] | ++ (++ ≥5 and <6) | 
CNC(=O)c1ccc2c(c1)sc1nc(-c3ccc([C@@H]4C[C@H](O)CN4)cc3F)cn12 [compound 521, 2-(2-fluoro-4-((2S,4S)-4-hydroxypyrrolidin-2-yl)phenyl)-N-methylbenzo[d]imidazo[2,1-b]thiazole-7-carboxamide] | +++ (+++ ≥6) | 
CN1CC[C@@H](NC(=O)c2ccc3c(c2)sc2nc(-c4ccc([C@@H]5CCCN5)cc4F)cn23)[C@@H](F)C1 [compound 526, N-((3S,4R)-3-fluoro-1-methylpiperidin-4-yl)-2-(2-fluoro-4-(pyrrolidin-2-yl)phenyl)benzo[d]imidazo[2,1-b]thiazole-7-carboxamide] | ++ (++ ≥5 and <6) | 
CN1CCC(NC(=O)c2ccc3c(c2)sc2nc(-c4ccc(C5CCNCC5)cc4F)cn23)CC1 [compound 527, 2-(2-fluoro-4-(piperidin-4-yl)phenyl)-N-(1-methylpiperidin-4-yl)benzo[d]imidazo[2,1-b]thiazole-7-carboxamide] | +++ (+++ ≥6) | 
CN1CCC(NC(=O)c2ccc3c(c2)sc2nc(-c4ccc(C5(O)CCNCC5)cc4F)cn23)CC1 [compound 528, 2-(2-fluoro-4-(4-hydroxypiperidin-4-yl)phenyl)-N-(1-methylpiperidin-4-yl)benzo[d]imidazo[2,1-b]thiazole-7-carboxamide] | +++ (+++ ≥6) | 
CN1CCC(NC(=O)c2ccc3c(c2)sc2nc(-c4ccc(C5(O)CCNC5)cc4F)cn23)CC1 (centres unmarked) [compound 530, 2-(2-fluoro-4-(3-hydroxypyrrolidin-3-yl)phenyl)-N-(1-methylpiperidin-4-yl)benzo[d]imidazo[2,1-b]thiazole-7-carboxamide] | +++ (+++ ≥6) | 
CN1C2CCC1CC(NC(=O)c1ccc3c(c1)sc1nc(-c4ccc([C@@H]5CCCN5)cc4F)cn13)C2 (some centres unmarked) [compound 531, 2-(2-fluoro-4-(pyrrolidin-2-yl)phenyl)-N-(8-methyl-8-azabicyclo[3.2.1]octan-3-yl)benzo[d]imidazo[2,1-b]thiazole-7-carboxamide] | ++ (++ ≥5 and <6) | 
NC(=O)c1ccc2c(c1)sc1nc(-c3ccc(C4CC(C(F)F)CN4)cc3F)cn12 (centres unmarked) [compound 540, 2-(4-(4-(difluoromethyl)pyrrolidin-2-yl)-2-fluorophenyl)benzo[d]imidazo [2,1-b]thiazole-7-carboxamide] | +++ (+++ ≥6) | 
CN1CCC(NC(=O)c2ccc3c(c2)sc2nc(-c4ccc(C5CC(C#N)CN5)cc4F)cn23)CC1 (centres unmarked) [compound 541, 2-(4-(4-cyanopyrrolidin-2-yl)-2-fluorophenyl)-N-(1-methylpiperidin-4-yl)benzo[d]imidazo[2,1-b]thiazole-7-carboxamide] | +++ (+++ ≥6) | 
O=C(NC1COCOC1)c1ccc2c(c1)sc1nc(-c3ccc(C4CCCN4)cc3F)cn12 (centres unmarked) [compound 545, N-(1,3-dioxan-5-yl)-2-(2-fluoro-4-(pyrrolidin-2-yl)phenyl)benzo[d]imidazo[2,1-b]thiazole-7-carboxamide] | +++ (+++ ≥6) | 
CN1CCC(NC(=O)c2ccc3c(c2)sc2nc(-c4ccc(C5CCNCC5O)cc4F)cn23)CC1 (centres unmarked) [compound 546, 2-(2-fluoro-4-(3-hydroxypiperidin-4-yl)phenyl)-N-(1-methylpiperidin-4-yl)benzo[d]imidazo[2,1-b]thiazole-7-carboxamide] | +++ (+++ ≥6) | 
O=C(NCCCN1CCC(F)CC1)c1ccc2c(c1)sc1nc(-c3cc4c(cc3F)CCN4)cn12 [compound 601, 2-(5-fluoroindolin-6-yl)-N-(3-(4-fluoropiperidin-1-yl)propyl)benzo[d]imidazo[2,1-b]thiazole-7-carboxamide] | +++ (+++ ≥6) | 
C[C@@H]1C[C@@H]([C@H](O)CC2CC(=O)NC(=O)C2)C(=O)[C@@H](C)C1 [cycloheximide] |  | global protein synthesis (AHA metabolic labeling) (A549 cells): total inhibition; incorporation of modified methionine (global translation) (global translation): completely reduced incorporation of modified methionine
N-(2- (dimethylamino)propyl)-2- (4- (methylcarbamoyl)phenyl) benzo[d]imidazo[2,1-b] thiazole-7-carboxamide [compound 239] | + (+ >3 and <5) | 
